This is an account of results in US20200271654A1, “Quantifying MGMT Protein For Optimal Cancer Therapy” (Expression Pathology, Inc., priority 2017, published 2020).

The experiment has as its system advanced colorectal cancer (CRC). Put plainly: Survival of advanced colorectal cancer patients treated with temozolomide, stratified by tumor MGMT protein level (SRM mass spectrometry). Format: in vivo. The conditions noted are these: for median progression-free survival (PFS): treated with temozolomide. The source says:
24 patients from Fondazione IRCCS Istituto Nazionale dei TumoriVia Venezian, Milan, Italy, were identified with advanced colorectal cancer (CRC). Tumors were surgically removed prior to treatment and archived as formalin-fixed, paraffin-embedded (FFPE) tissue and all were histologically colorectal cancer. All 24 patients were subsequently treated with temozolomide.
Archived formalin-fixed, paraffin-embedded tissue sections were obtained from patients with advanced CRC treated with temozolomide (n=24). A board-certified pathologist marked the tumor areas. Based on the markups, tumor cells were laser microdissected and solubilized to tryptic peptides using the Liquid Tissue process. In each liquefied sample, multiple protein biomarkers including MGMT were quantified by selected reaction monitoring (SRM) mass spectrometry (MS). A mixture of stable isotope-labeled heavy peptides including the MGMT fragment peptide TTLDSPLGK was added prior to MS analysis. Each sample was analyzed in triplicate. […] The Mantel-Cox log-rank and Gehan-Breslow-Wilcoxon tests were used for survival comparisons.

Turning to `Cn1nnc2c(C(N)=O)ncn2c1=O` [temozolomide], the “median progression-free survival (PFS)” value is 1.6 months (CRC patients with MGMT levels above cutoff of 200 amol/μg) and 4.3 months (CRC patients with MGMT protein levels below cutoff of 200 amol/μg (n=11), p=0.0611 vs above cutoff). For the setting “cutoff 200 amol/μg, temozolomide-treated CRC patients”, the “ratio of median progression-free survival, MGMT below cutoff vs above cutoff” value is “approximately 2.5 times”.
